Experimental findings from patent US6608082B1, “Treatment of erectile dysfunction using isoquinoline compound melanocortin receptor ligands” (Lion Bioscience AG, priority 1998, dated 2003) are described below.

One experiment has as its target T1, MCR-4 (Homo sapiens, UniProt P32245).
T1 construct: expressed in transfected cells; host or cells: HEK 293
Kind of experiment: Melanocortin receptor binding assay, competition with 125I-HP 467, HEK 293 cells expressing hMCR-4. Conditions: inhibition of binding of 125I-HP 467, HEK 293 cells expressing MCR-4; for IC50: read-out: MC-4 IC50. A digest of the protocol:
(§1)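 Test compounds compete on intact HEK 293 cells carrying hMCR-1 (2×10^4 per tube) or hMCR-4 (4×10^3 per tube), suspended in PBS, 10% calf serum, 1 mM CaCl2.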

In the next experiment the target is T2, MCR-1 (Homo sapiens, UniProt Q01726).
T2 construct: expressed in transfected cells; host or cells: HEK 293
Nature of the experiment: Melanocortin receptor binding assay, competition with 125I-HP 467, HEK 293 cells expressing hMCR-1. Conditions: inhibition of binding of 125I-HP 467, HEK 293 cells expressing MCR-1; for IC50: read-out: MC-1 IC50. A digest of the protocol: as §1

SMILES strings stand for the structures. Read-outs that look alike come from different tables or passages of the source.

T1 sequence (P32245 whole entry): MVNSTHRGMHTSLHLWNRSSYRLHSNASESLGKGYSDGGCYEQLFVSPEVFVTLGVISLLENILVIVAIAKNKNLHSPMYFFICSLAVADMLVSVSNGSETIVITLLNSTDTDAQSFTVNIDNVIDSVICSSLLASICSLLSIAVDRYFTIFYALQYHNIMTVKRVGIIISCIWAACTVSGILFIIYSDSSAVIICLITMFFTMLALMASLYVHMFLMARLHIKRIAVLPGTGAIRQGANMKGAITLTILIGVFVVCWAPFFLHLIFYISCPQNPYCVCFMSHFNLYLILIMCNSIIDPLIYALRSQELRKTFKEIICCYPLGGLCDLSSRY
T2 sequence (Q01726 whole entry): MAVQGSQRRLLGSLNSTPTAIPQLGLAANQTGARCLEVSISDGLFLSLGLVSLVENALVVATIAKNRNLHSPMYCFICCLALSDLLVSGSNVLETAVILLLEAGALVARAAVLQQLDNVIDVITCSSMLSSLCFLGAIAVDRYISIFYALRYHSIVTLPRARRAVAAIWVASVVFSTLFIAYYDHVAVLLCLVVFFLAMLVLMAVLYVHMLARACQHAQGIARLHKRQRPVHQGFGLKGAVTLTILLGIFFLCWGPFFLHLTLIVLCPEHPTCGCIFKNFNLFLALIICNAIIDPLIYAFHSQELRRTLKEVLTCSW

Regarding `CCCOc1ccc(C2C(CNCCc3cccc(Cl)c3)c3ccccc3CN2CCCCC(CN)NCc2ccccc2)cc1` (stereo not shown) [TRG 2414-175], the half-maximal inhibitory concentration (IC50) (in general, the concentration that gives 50% inhibition) was 6080 nM on MCR-4 (TRG 2414 library) and 4140 nM at MCR-1 (TRG 2414 library).
With `CCCOc1ccc(C2C(CNCCc3cccc(Cl)c3)c3ccccc3CN2CCCCC(CN)NCC(C)c2ccc(CC(C)C)cc2)cc1` (stereo not shown) [TRG 2414-176], at MCR-4 (TRG 2414 library), the “MC-4 IC50” value is listed as “no fit”. For the same compound, the IC50 at MCR-1 (TRG 2414 library) stood at 21900 nM.
Regarding `CCCOc1ccc(C2C(CNCc3cccc(OC)c3)c3ccccc3CN2CCCCC(CN)NCCc2ccccc2)cc1` (stereo not shown) [TRG 2414-178], the IC50 was found to be 8130 nM on MCR-4 (TRG 2414 library) and 2180 nM on MCR-1 (TRG 2414 library).
The matching figures for `CCCOc1ccc(C2C(CNCc3cccc(OC)c3)c3ccccc3CN2CCCCC(CN)NCc2ccccc2)cc1` (stereo not shown) [TRG 2414-179]: 5480 nM and 998 nM.
Taken in the same sequence, the figures for `CCCOc1ccc(C2C(CNCc3ccc(OC)cc3)c3ccccc3CN2CCCCC(N)CN)cc1` (stereo not shown) [TRG 2414-181] were 6830 nM and 468 nM.
The matching figures for `CCCOc1ccc(C2C(CNCc3ccc(OC)cc3)c3ccccc3CN2CCCCC(CN)NCCc2ccccc2)cc1` (stereo not shown) [TRG 2414-182]: 4110 nM and 1480 nM.
For `CCCOc1ccc(C2C(CNCc3ccc(OC)cc3)c3ccccc3CN2CCCCC(CN)NCc2ccccc2)cc1` (stereo not shown) [TRG 2414-183], the values for the 50% inhibitory concentration (IC50) on MCR-4 (TRG 2414 library) and on MCR-1 (TRG 2414 library) were 4950 nM and 1090 nM, respectively.
Taken in the same sequence, the figures for `CCCOc1ccc(C2C(CNCc3ccc(OC)cc3)c3ccccc3CN2CCCCC(CN)NCC(C)c2ccc(CC(C)C)cc2)cc1` (stereo not shown) [TRG 2414-184] were 27900 nM and 17000 nM.
As to `CCCCNc1ccc(C2C(CO)c3ccccc3CN2CCCC(CN)NCCC2CCCCC2)cc1` (stereo not shown) [TRG 2415-1], the IC50 is 5040 nM at MCR-4 and 1930 nM at MCR-1.
Taken in the same sequence, the figures for `NCC(CCCN1Cc2ccccc2C(CO)C1c1ccc(O)cc1)NCCC1CCCCC1` (stereo not shown) [TRG 2415-2] were 940 nM and 2240 nM.
Take `CCOc1ccc(C2C(CO)c3ccccc3CN2CCCC(CN)NCCC2CCCCC2)cc1` (stereo not shown) [TRG 2415-3]: the IC50 turned out to be 2380 nM on MCR-4 and 1440 nM on MCR-1.
The matching figures for `CC(C)Oc1ccc(C2C(CO)c3ccccc3CN2CCCC(CN)NCCC2CCCCC2)cc1` (stereo not shown) [TRG 2415-5]: 960 nM and 2520 nM.
Taken in the same sequence, the figures for `CCCCOc1ccc(C2C(CO)c3ccccc3CN2CCCC(CN)NCCC2CCCCC2)cc1` (stereo not shown) [TRG 2415-6] were 5000 nM and 2390 nM.
The matching figures for `CCc1ccc(C2C(CO)c3ccccc3CN2CCCC(CN)NCCC2CCCCC2)cc1` (stereo not shown) [TRG 2415-7]: 2130 nM and 4800 nM.
As for `CCCCCc1ccc(C2C(CO)c3ccccc3CN2CCCC(CN)NCCC2CCCCC2)cc1` (stereo not shown) [TRG 2415-8], the IC50 turned out to be 13800 nM on MCR-4 and 6210 nM at MCR-1.
Taken in the same sequence, the figures for `NCC(CCCN1Cc2ccccc2C(CN)C1c1ccc(O)cc1)NCCC1CCCCC1` (stereo not shown) [TRG 2415-9] were 1950 nM and 3000 nM.
The matching figures for `CCOc1ccc(C2C(CN)c3ccccc3CN2CCCC(CN)NCCC2CCCCC2)cc1` (stereo not shown) [TRG 2415-10]: 1760 nM and 460 nM.
In the case of `CCCOc1ccc(C2C(CN)c3ccccc3CN2CCCC(CN)NCCC2CCCCC2)cc1` (stereo not shown) [TRG 2415-11], the half-inhibitory concentration (IC50) on MCR-4 came out at 1520 nM; on MCR-1, 441 nM.
`CCCCOc1ccc(C2C(CN)c3ccccc3CN2CCCC(CN)NCCC2CCCCC2)cc1` (stereo not shown) [TRG 2415-12]: the concentration for half-maximal inhibition (IC50) came out at 3890 nM at MCR-4 and 677 nM on MCR-1.
The matching figures for `CCc1ccc(C2C(CN)c3ccccc3CN2CCCC(CN)NCCC2CCCCC2)cc1` (stereo not shown) [TRG 2415-13]: 870 nM and 1830 nM.
Regarding `CCCCCc1ccc(C2C(CN)c3ccccc3CN2CCCC(CN)NCCC2CCCCC2)cc1` (stereo not shown) [TRG 2415-14], the IC50 at MCR-4 was determined as 9390 nM; at MCR-1 it was 1690 nM.
With `CCNC(CN)CCCCN1Cc2ccccc2C(CN)C1c1ccc(O)cc1` (stereo not shown) [TRG 2415-15], the IC50 on MCR-4 amounted to 63900 nM. Moreover, the “MC-1 IC50” value on MCR-1 is “no fit”.
`CCNC(CN)CCCCN1Cc2ccccc2C(CN)C1c1ccc(OCC)cc1` (stereo not shown) [TRG 2415-16]: the IC50 came out at 3990 nM on MCR-4 and 1330 nM on MCR-1.
With `CCCOc1ccc(C2C(CN)c3ccccc3CN2CCCCC(CN)NCC)cc1` (stereo not shown) [TRG 2415-17], the 50% inhibitory concentration (IC50) came out at 9350 nM at MCR-4 and 581 nM at MCR-1.
Taken in the same sequence, the figures for `CCNC(CN)CCCCN1Cc2ccccc2C(CN)C1c1ccc(CC)cc1` (stereo not shown) [TRG 2415-19] were 2040 nM and 1460 nM.
Regarding `CCCCCc1ccc(C2C(CN)c3ccccc3CN2CCCC[C@@H](CN)NCC)cc1` (stereo partly shown) [TRG 2415-20], the half-maximal inhibitory concentration (IC50) at MCR-4 is 4540 nM; on MCR-1, 273 nM.
The matching figures for `CCNc1ccc(C2C(CNCCc3ccccc3)c3ccccc3CN2CCCC(CN)NCCCCNc2ccccc2)cc1` (stereo not shown) [TRG 2419-1]: 3010 nM and 110 nM.
As for `CCNc1ccc(C2C(CNCCc3ccccc3)c3ccccc3CN2CCCC(CN)NCCCCNCc2ccccc2)cc1` (stereo not shown) [TRG 2419-3], the IC50 at MCR-4 is 2150 nM; at MCR-1 it was 49 nM.
For `CCNc1ccc(C2C(CNCCc3ccccc3)c3ccccc3CN2CCCC(CN)NCCCCN(CC)CC)cc1` (stereo not shown) [TRG 2419-4], the figures for the IC50 on MCR-4 and on MCR-1 were 14400 nM and 58 nM, respectively.
Turning to `CCNc1ccc(C2C(CN)c3ccccc3CN2CCCC(CN)NCCCCNCc2ccccc2)cc1` (stereo not shown) [TRG 2419-6], the IC50 is 6410 nM on MCR-4 and 82 nM on MCR-1.
`CCNc1ccc(C2C(CN)c3ccccc3CN2CCCC(CN)NCCCCN(CC)CC)cc1` (stereo not shown) [TRG 2419-7]: the IC50 came to 10100 nM at MCR-4 and 141 nM at MCR-1.
Taken in the same sequence, the figures for `CCNc1ccc(C2C(CN)c3ccccc3CN2CCCC(CN)NCCCCO)cc1` (stereo not shown) [TRG 2419-8] were 6910 nM and 1090 nM.
Taken in the same sequence, the figures for `CCNc1ccc(C2C(CN)c3ccccc3CN2CCCC(CN)NCCCCNc2ccccc2)cc1` (stereo not shown) [TRG 2419-9] were 10000 nM and 239 nM.
The matching figures for `CCNc1ccc(C2C(CN)c3ccccc3CN2CCCC(CN)NCCCCNC(C)(C)C)cc1` (stereo not shown) [TRG 2419-10]: 4320 nM and 93 nM.
Take `CCNc1ccc(C2C(CN)c3ccccc3CN2CCCC(CN)NCCCCN)cc1` (stereo not shown) [TRG 2419-11]: the IC50 at MCR-4 was determined as 18400 nM; on MCR-1, 199 nM.
Taken in the same sequence, the figures for `CCNc1ccc(C2C(CN)c3ccccc3CN2CCCC(CN)NCCCCNCCc2ccccc2)cc1` (stereo not shown) [TRG 2419-12] were 16700 nM and 73 nM.
Taken in the same sequence, the figures for `CCNc1ccc(C2C(CN)c3ccccc3CN2CCCC(CN)NCCCCN2CCCCC2)cc1` (stereo not shown) [TRG 2419-13] were 2510 nM and 73 nM.
Taken in the same sequence, the figures for `CCNc1ccc(C2C(CNCCc3ccccc3)c3ccccc3CN2CCCC(CN)NCCCCCNC(C)C)cc1` (stereo not shown) [TRG 2420-1] were 1500 nM and 46 nM.
Regarding `CCNc1ccc(C2C(CNCCc3ccccc3)c3ccccc3CN2CCCC(CN)NCCCCCNCc2ccccc2)cc1` (stereo not shown) [TRG 2420-2], the half-inhibitory concentration (IC50) at MCR-4 was 4050 nM; on MCR-1, 76 nM.
The matching figures for `CCNc1ccc(C2C(CNCCc3ccccc3)c3ccccc3CN2CCCC(CN)NCCCCCN(CC)CC)cc1` (stereo not shown) [TRG 2420-3]: 8230 nM and 30 nM.
For `CCNc1ccc(C2C(CNCCc3ccccc3)c3ccccc3CN2CCCC(CN)NCCCCCNCCc2ccccc2)cc1` (stereo not shown) [TRG 2420-4], the IC50 on MCR-4 came out at 4170 nM; at MCR-1, 68 nM.
